Values quoted from earlier work as cited in patent publication US8895729B2, “Process for making thienopyrimidine compounds” (Genentech, Inc., priority 2012, dated 2014).

What was measured:
[1] = system: MDA-MB-361.1 breast cancer xenograft
[2] = system: PC3 PTEN-prostate xenograft; details: mouse PC3 PTEN- prostate xenograft; 25 to 150 mg/kg qd po
[3] = single oral dose
[4] = system: receptor screening assay (n=68); details: GDC-0980=10 microM
[5] = system: xenograft cancer models; breast, ovarian, lung, and prostate
[6] = system: MCF7.1 E545K breast xenograft; details: mouse MCF7.1 E545K breast xenograft; 25 to 150 mg/kg qd po
[7] = system: MCF7-neo/HER2 cell line
[8] = not given; remark: listed apart in the source

SMILES: Cc1c(CN2CCN(C(=O)[C@H](C)O)CC2)sc2c(N3CCOCC3)nc(-c3cnc(N)nc3)nc12 [GDC-0980, (S)-1-(4-((2-(2-aminopyrimidin-5-yl)-7-methyl-4-morpholinothieno[3,2-d]pyrimidin-6-yl)methyl)piperazin-1-yl)-2-hydroxypropan-1-one]
- minimum dose producing significant growth inhibition [1]: 1.0 mg/kg QD
- efficacy in xenograft model [2]: efficacious
- AUC dose dependence [3]: dose-proportional increases
- Cmax dose dependence [3]: dose-proportional increases
- responses in a receptor screening assay [4]: did not elicit significant responses
- activity in preclinical xenograft cancer models [5]: broad activity
- efficacy in xenograft model [6]: efficacious
- stability in human hepatocytes: stable
- IC50 [7]: 320 nM
- stability in human microsomes [8]: stable
